According to publication PMC7663979, “Design of Novel 4-Aminobenzofuroxans and Evaluation of Their Antimicrobial and Anticancer Activity” (International Journal of Molecular Sciences, 2020):
Values joined by “and” are separate entries in the source; they are usually repeats but may differ in a detail not shown here. Equal entries are not always repeated. Where two headings read alike, the source gives them in different places.

Key:
T98G = experiment: cells; type: cell-based, human; conditions: for IC50: Homo sapiens, T98G, read-out: IC50 T98G; for SI T98G: selectivity index = IC50 normal cells (Chang liver) / IC50 cancer cells, n.s. = no selectivity
PANC-1 = experiment: Cytotoxicity assay (Cytell Cell Viability BioApp), PANC-1; type: cell-based, human; conditions: for IC50: Homo sapiens, PANC-1, mean ± SD, three experiments; for SI PANC-1: selectivity index = IC50 normal cells (Chang liver) / IC50 cancer cells, n.s. = no selectivity
[1] = tested on: Vibrio aquamarinus DSM 26054; parameters: method as in PMID 31450696; conditions: control = 100%, data first published in ref 40, cited from earlier work
M-HeLa = experiment: Cytotoxicity assay (Cytell Cell Viability BioApp), M-HeLa; type: cell-based, human; conditions: for IC50: Homo sapiens, M-HeLa, mean ± SD, three experiments; for SI M-HeLa: selectivity index = IC50 normal cells (Chang liver) / IC50 cancer cells, n.s. = no selectivity
M-HeLa cells [2] = experiment: Cell apoptosis analysis by flow cytometry (annexin V-Alexa Fluor 647 / propidium iodide); type: cell-based, human; conditions: 24 h
Protocol: (§1) Cell Culture. M-HeLa cells at 10^6 cells/ well in a final volume of 2 mL were seeded into 6-well plates. After 24 h of incubation, various concentrations of compounds 3c and 3f were added to wells.
Cell Apoptosis Analysis. The cells were harvested at 2000 rpm for 5 min and, then, washed twice with ice-cold PBS, followed by resuspension in binding buffer 100 μL. Next, the samples were incubated with 0.35 μL of annexin V-Alexa Fluor 647 and 0.1 μL of propidium iodide for 40 min at room temperature in the dark. Finally, the cells were analyzed by flow cytometry (Guava easyCyte, MERCK, Kenilworth, NJ, USA). The experiments were repeated three times.

Chang Liver = experiment: Cytotoxicity assay (Cytell Cell Viability BioApp), normal Chang liver cells; type: cell-based; conditions: Homo sapiens, mean ± SD, three experiments, read-out: IC50 Chang Liver (normal cell line)
M-HeLa cells [3] = experiment: Cell cycle analysis, propidium iodide, flow cytometry; type: cell-based, human; conditions: 15 μM, 24 h; control cells 34.28%
Protocol: as §1
The DNA content and cell-cycle distribution after […] were estimated by flow cytometry. Cell seeding, drug treatment and ethanol fixation were similar to cell proliferation assay. After washing with PBS, […] were suspended in 150 μL of PBS, then 0.5 mL phosphate-citrate buffer (0.05 M, pH = 4.0) was added and the suspension was incubated at room temperature for 5 min to facilitate the extraction of low molecular weight DNA. Following centrifugation the cells were resuspended in 150 μL DNA staining solution (20 μg/mL propidium iodide, 200 μg/mL […], and 0.1% Triton X-100) and incubated in the CO2 incubator (37 °C for 30 min). Cell cycle distribution was determined by fluorescence-activated cell sorting analysis of propidium iodide-stained ethanol-fixed cells using a Guava EasyCyte (Guava easyCyte, MERCK, Kenilworth, NJ, USA).

MCF7 = experiment: Cytotoxicity assay (Cytell Cell Viability BioApp), MCF7; type: cell-based, human; conditions: for IC50: Homo sapiens, MCF7, mean ± SD, three experiments; for SI MCF7: selectivity index = IC50 normal cells (Chang liver) / IC50 cancer cells, n.s. = no selectivity
M-HeLa cells [4] = experiment: Mitochondrial membrane potential, JC-10, flow cytometry; type: cell-based, human; conditions: ≥ IC 50 concentrations
Protocol: as §1
The cells were harvested at 2000 rpm for 5 min and, then, washed twice with ice-cold PBS, followed by resuspension in JC-10 (10 µg/mL) and incubation at 37 °C for 10 min. After the cells were rinsed three times and suspended in PBS, the JC-10 fluorescence was observed by flow cytometry.

| Compound | IC50 (T98G) [µM] | SI T98G (T98G) | IC50 (PANC-1) [µM] | SI PANC-1 (PANC-1) | IC50 (M-HeLa) [µM] | SI M-HeLa (M-HeLa) | IC50 (Chang Liver) [µM] | IC50 (MCF7) [µM] | SI MCF7 (MCF7) | intensity of red fluorescence (JC-10) compared to the control (M-HeLa cells [4]) | other results |
| --- | --- | --- | --- | --- | --- | --- | --- | --- | --- | --- | --- |
| O=[N+]([O-])c1c(Cl)cc2c(no[n+]2[O-])c1Nc1cccc(O)c1 [Compound 3f, 6-chloro-4-((3-hydroxyphenyl)amino)-5-nitrobenzofuroxan] | 59.8 ± 4.8 | 1.1 | > 100 | n.s. | 16 ± 1.3 | 4.0 | 64.4 ± 5.7 | 8.1 ± 0.7 | 8.0 | – | Biofilm Formation, % ([1]; compound concentration 1 × 10^−4 M): 98.97%; Biofilm Formation, % ([1]; compound concentration 1 × 10^−5 M): 96.57%; Biofilm Formation, % ([1]; compound concentration 1 × 10^−6 M): 43.56% and 43.56 * %; Biofilm Formation, % ([1]; compound concentration 1 × 10^−7 M): 11.34% and 11.34 * %; Biofilm Formation, % ([1]; compound concentration 1 × 10^−8 M): 9.31% and 9.31 * %; Biofilm Formation, % ([1]; compound concentration 1 × 10^−9 M): 66.58%; D—dead cells (M-HeLa cells [2]; 10 μM): 5.03%; Ea—early apoptotic cells (M-HeLa cells [2]; 10 μM): 14.46%; La—late apoptotic cells (M-HeLa cells [2]; 10 μM): 12.79%; L—living cells (M-HeLa cells [2]; 10 μM): 67.72%; D—dead cells (M-HeLa cells [2]; 15 μM): 8.16%; Ea—early apoptotic cells (M-HeLa cells [2]; 15 μM): 17.59%; La—late apoptotic cells (M-HeLa cells [2]; 15 μM): 16.83%; L—living cells (M-HeLa cells [2]; 15 μM): 57.42%; cells in G0/G1 phase (G1) (M-HeLa cells [3]): 66.8% |
| O=[N+]([O-])c1c(Cl)cc2c(no[n+]2[O-])c1NCCCN1CCOCC1 [Compound 5c, 6-chloro-4-((3-morpholinopropyl)amino)-5-nitrobenzofuroxan] | > 100 | n.s. | 38 ± 2.9 | >2.6 | 49.3 ± 3.9 | >2 | > 100 | > 100 | n.s. | did not change significantly | – |
| O=[N+]([O-])c1c(Cl)cc2c(no[n+]2[O-])c1N1CCCC1 [Compound 5g, 6-chloro-5-nitro-4-(pyrrolidin-1-yl)benzofuroxan] | > 100 | n.s. | > 100 | n.s. | > 100 | n.s. | > 100 | > 100 | n.s. | did not change significantly | – |
| CC(C)c1ccc(Nc2c([N+](=O)[O-])cc([N+](=O)[O-])c3no[n+]([O-])c23)cc1 [Compound 6, 7-(4-isopropylphenylamino)-4,6-dinitrobenzofuroxan] | – | – | – | – | – | – | – | – | – | – | melting point: 110 to 111 °C |
